Data on one compound can be found in ChEMBL document CHEMBL5678818, “Discovery of potent SOS1 inhibitors that block RAS activation via disruption of the RAS-SOS1 interaction” (Proc Natl Acad Sci U S A, 2019).

Assay [1] addresses T1, Serine/threonine-protein kinase Sgk3 (Homo sapiens) (UniProt Q96BR1).
T1 sequence (whole entry): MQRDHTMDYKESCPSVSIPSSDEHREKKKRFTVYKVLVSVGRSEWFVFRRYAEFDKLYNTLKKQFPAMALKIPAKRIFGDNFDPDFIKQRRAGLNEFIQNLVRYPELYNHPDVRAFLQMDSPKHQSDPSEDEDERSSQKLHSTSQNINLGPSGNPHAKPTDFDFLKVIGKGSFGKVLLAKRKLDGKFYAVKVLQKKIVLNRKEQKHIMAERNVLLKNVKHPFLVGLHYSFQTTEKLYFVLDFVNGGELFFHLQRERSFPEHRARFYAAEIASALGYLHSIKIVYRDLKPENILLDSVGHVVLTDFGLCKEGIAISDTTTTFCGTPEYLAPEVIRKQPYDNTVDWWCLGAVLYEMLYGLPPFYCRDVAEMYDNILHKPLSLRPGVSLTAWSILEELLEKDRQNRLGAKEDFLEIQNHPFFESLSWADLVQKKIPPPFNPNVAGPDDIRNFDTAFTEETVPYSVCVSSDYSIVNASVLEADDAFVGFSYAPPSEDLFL
Briefly: Inhibition of SGK3 (unknown origin) assessed as residual activity at 100 nM by KINOMEscan analysis relative to control.

Assay [2] concerns the target Serine/threonine-protein kinase SIK2 (Homo sapiens) (UniProt Q9H0K1). Briefly: Inhibition of SIK2 (unknown origin) assessed as residual activity at 100 nM by KINOMEscan analysis relative to control.
The target of assay [3] is Tyrosine-protein kinase Fer (Homo sapiens) (UniProt P16591). Briefly: Inhibition of FER (unknown origin) assessed as residual activity at 100 nM by KINOMEscan analysis relative to control.
Chain of Tyrosine-protein kinase Fer (Homo sapiens) (P16591 whole entry, looked up, the tested form may be a part): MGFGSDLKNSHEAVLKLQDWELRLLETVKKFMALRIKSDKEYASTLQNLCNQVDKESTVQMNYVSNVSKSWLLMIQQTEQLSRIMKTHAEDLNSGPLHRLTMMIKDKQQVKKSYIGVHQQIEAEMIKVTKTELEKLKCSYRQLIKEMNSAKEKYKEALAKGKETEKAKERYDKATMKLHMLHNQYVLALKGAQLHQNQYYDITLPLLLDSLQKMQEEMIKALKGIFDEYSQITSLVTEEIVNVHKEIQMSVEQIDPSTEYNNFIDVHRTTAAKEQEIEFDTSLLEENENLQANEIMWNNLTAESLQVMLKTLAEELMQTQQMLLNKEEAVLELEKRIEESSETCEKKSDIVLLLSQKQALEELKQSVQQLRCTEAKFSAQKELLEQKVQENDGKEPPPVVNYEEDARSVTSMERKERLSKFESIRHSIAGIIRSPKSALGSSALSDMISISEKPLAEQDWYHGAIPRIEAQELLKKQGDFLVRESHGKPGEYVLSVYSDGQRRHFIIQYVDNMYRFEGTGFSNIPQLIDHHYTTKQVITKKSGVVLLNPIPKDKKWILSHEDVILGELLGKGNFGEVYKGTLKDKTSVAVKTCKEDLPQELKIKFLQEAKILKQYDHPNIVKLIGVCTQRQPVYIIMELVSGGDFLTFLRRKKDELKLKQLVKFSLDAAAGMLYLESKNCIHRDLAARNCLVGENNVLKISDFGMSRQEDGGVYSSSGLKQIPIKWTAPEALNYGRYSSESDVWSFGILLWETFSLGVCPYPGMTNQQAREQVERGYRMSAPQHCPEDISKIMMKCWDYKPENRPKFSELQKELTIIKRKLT
The target in assay [4] is T2, Phosphatidylinositol 3-kinase C2 domain-containing subunit gamma (Homo sapiens) (UniProt O75747).
T2 sequence (whole entry): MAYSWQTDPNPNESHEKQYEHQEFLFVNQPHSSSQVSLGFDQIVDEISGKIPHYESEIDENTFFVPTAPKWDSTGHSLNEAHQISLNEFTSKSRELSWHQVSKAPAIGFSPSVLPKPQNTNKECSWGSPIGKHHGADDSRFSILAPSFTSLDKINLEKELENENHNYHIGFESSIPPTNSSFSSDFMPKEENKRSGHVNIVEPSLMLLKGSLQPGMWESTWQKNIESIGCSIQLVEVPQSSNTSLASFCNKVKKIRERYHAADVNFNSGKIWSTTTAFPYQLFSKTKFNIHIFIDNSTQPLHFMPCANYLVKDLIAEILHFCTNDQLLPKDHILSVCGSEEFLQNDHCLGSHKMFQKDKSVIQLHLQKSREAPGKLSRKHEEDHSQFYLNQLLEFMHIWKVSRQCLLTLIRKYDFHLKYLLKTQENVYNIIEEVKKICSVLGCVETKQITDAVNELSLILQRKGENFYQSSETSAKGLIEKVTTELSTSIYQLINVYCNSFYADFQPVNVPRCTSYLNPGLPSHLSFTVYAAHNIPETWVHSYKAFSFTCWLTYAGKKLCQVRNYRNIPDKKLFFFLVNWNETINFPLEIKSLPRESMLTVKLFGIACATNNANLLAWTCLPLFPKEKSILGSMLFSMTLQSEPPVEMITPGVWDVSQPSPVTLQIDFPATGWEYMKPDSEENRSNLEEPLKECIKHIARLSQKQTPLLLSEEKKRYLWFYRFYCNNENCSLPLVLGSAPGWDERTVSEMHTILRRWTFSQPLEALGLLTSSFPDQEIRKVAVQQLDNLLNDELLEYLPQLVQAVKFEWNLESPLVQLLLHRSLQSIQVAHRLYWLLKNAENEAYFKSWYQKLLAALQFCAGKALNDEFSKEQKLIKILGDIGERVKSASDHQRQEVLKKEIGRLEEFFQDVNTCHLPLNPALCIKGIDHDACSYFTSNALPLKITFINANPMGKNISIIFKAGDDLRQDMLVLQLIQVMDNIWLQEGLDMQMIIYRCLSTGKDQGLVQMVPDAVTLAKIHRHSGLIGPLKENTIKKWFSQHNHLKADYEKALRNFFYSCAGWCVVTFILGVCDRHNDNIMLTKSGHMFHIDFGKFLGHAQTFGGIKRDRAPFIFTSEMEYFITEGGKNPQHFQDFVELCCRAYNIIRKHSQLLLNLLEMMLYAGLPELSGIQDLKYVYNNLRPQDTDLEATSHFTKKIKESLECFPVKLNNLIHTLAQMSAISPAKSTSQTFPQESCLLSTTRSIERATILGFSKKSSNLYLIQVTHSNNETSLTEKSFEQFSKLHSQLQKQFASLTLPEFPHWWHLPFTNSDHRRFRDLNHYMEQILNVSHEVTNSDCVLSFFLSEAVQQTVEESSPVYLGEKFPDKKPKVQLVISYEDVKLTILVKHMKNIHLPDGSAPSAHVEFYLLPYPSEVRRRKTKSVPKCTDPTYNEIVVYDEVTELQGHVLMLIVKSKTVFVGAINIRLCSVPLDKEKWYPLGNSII
Briefly: Inhibition of PIK3C2G (unknown origin) assessed as residual activity at 100 nM by KINOMEscan analysis relative to control.

In assay [5] the target is Tyrosine-protein kinase Fgr (Homo sapiens) (UniProt P09769). Briefly: Inhibition of FGR (unknown origin) assessed as residual activity at 100 nM by KINOMEscan analysis relative to control.
Chain of Tyrosine-protein kinase Fgr (Homo sapiens) (P09769 2-529 limits assumed): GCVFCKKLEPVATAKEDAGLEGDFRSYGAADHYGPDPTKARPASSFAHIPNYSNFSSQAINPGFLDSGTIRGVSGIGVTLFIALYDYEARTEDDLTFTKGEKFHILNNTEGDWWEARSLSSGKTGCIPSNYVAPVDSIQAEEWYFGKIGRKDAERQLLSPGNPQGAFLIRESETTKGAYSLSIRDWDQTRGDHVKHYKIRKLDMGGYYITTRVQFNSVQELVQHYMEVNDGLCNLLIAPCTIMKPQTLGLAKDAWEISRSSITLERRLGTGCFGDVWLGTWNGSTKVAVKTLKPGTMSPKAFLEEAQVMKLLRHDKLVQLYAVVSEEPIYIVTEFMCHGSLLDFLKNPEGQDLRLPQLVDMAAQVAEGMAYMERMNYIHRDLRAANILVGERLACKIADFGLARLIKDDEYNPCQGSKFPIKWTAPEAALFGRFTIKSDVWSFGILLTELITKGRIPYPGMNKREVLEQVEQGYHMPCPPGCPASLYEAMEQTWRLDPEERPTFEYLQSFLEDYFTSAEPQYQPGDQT

Chain of Serine/threonine-protein kinase SIK2 (Homo sapiens) (Q9H0K1 whole entry, looked up): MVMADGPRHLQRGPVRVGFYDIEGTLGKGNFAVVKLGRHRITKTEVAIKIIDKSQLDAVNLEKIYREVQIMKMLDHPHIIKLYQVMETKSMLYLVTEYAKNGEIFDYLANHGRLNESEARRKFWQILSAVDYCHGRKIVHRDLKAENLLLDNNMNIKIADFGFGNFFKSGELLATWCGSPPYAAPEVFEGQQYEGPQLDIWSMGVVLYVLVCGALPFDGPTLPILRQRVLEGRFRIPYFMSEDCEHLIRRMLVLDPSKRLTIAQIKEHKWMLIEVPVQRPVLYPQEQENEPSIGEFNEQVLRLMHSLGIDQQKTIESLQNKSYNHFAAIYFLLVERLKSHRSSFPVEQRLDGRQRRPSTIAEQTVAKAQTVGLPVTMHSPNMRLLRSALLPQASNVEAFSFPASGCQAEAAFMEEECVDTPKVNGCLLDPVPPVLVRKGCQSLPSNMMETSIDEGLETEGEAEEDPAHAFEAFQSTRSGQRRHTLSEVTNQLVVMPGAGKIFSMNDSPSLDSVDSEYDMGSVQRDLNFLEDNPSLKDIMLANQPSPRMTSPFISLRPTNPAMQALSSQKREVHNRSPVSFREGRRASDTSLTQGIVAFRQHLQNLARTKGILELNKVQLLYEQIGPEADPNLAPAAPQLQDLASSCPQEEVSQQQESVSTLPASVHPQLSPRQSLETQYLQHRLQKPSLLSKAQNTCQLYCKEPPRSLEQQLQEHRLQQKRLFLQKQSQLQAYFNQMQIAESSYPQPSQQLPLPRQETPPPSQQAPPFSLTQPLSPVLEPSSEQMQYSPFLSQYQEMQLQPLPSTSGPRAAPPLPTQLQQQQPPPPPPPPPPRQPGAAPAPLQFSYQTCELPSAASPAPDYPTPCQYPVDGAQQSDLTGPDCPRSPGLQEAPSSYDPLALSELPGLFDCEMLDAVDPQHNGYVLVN

Consider `COc1cc2ncnc(N[C@H](C)c3cccc4ccccc34)c2cc1OC`, for which the Activity in assay [1] was found to be 100%; in assay [2], 91%; in assay [3], 100%; in assay [4], 85%; in assay [5], 81%.
